The text below walks through data of PubChem BioAssay AID248 (DTP/NCI, 2004).

The subject of this experiment is L1210 leukemia ip in BDF1 mice, survival T/C. In words: NCI In Vivo Anticancer Drug Screen. Data for tumor model L1210 Leukemia (intraperitoneal) in B6D2F1 (BDF1) mice. As to conditions: endpoint: mean survival time, higher = longer survival. An outline of the steps:
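In this screen, tumor-bearing mice given compound are compared to those given vehicle, and their survival values are reported as a treated-to-control quotient.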

Setting [1] is: dose: 100.0 mg/kg/injection, schedule: Q04DX002 (ip), vehicle: Klucel (hydroxypropylcellulose) (HPC).
[2] abbreviates: dose: 200.0 mg/kg/injection, schedule: Q04DX002 (ip), vehicle: Klucel (hydroxypropylcellulose) (HPC).
[3] abbreviates: dose: 400.0 mg/kg/injection, schedule: Q04DX002 (ip), vehicle: Klucel (hydroxypropylcellulose) (HPC).
Setting [4] is: dose: 25.0 mg/kg/injection, schedule: Q04DX003 (ip), vehicle: Klucel (hydroxypropylcellulose) (HPC).
[5] abbreviates: dose: 100.0 mg/kg/injection, schedule: Q01DX009 (ip), vehicle: Klucel (hydroxypropylcellulose) (HPC).
The mark [6] stands for this setting: dose: 100.0 mg/kg/injection, schedule: Q04DX003 (ip), vehicle: Klucel (hydroxypropylcellulose) (HPC).
The mark [7] stands for this setting: dose: 200.0 mg/kg/injection, schedule: Q01DX009 (ip), vehicle: Klucel (hydroxypropylcellulose) (HPC).
Where [8] appears, read: dose: 100.0 mg/kg/injection, schedule: Q01DX001 (ip), vehicle: carboxymethylcellulose (CMC).
The mark [9] stands for this setting: dose: 200.0 mg/kg/injection, schedule: Q01DX001 (ip), vehicle: carboxymethylcellulose (CMC).
The mark [10] stands for this setting: dose: 400.0 mg/kg/injection, schedule: Q01DX001 (ip), vehicle: carboxymethylcellulose (CMC).
The mark [11] stands for this setting: dose: 100.0 mg/kg/injection, schedule: Q01DX009 (ip), vehicle: saline with Tween-80.
Setting [12] is: dose: 200.0 mg/kg/injection, schedule: Q01DX009 (ip), vehicle: saline with Tween-80.

Where “and” joins values, the source holds several entries; their conditions need not be identical. Equal entries are not always repeated. Inconclusive results and toxic doses are left out.

As for `Cc1ccc(C(O)c2nnc(C(O)c3ccc(C)cc3)nn2)cc1` (configuration not stated), the T/C by setting is: under setting [1], 88 % of control and 107 % of control and 100 % of control; under setting [2], 100 % of control and 96 % of control; under setting [3], 96 % of control and 100 % of control.

Regarding `Br[C](Br)(Br)[Hg][c]1ccccc1`, the T/C (dose: 6.0 mg/kg/injection, schedule: Q01DX009 (ip), vehicle: Klucel (hydroxypropylcellulose) (HPC)) was 98 % of control; the T/C (dose: 12.5 mg/kg/injection, schedule: Q01DX009 (ip), vehicle: Klucel (hydroxypropylcellulose) (HPC)) was 93 % of control; the T/C (dose: 12.5 mg/kg/injection, schedule: Q04DX003 (ip), vehicle: Klucel (hydroxypropylcellulose) (HPC)) is 110 % of control; the T/C (dose: 25.0 mg/kg/injection, schedule: Q01DX009 (ip), vehicle: Klucel (hydroxypropylcellulose) (HPC)) is 87 % of control; the T/C under setting [4] is 95 % of control.

Consider `CCc1ccc(CCSCCc2ccc(CC)c[n+]2[O-])[n+]([O-])c1`, for which the T/C by setting is: (dose: 100.0 mg/kg/injection, schedule: Q01DX001 (ip), vehicle: saline) 96 % of control; (dose: 200.0 mg/kg/injection, schedule: Q01DX001 (ip), vehicle: saline) 100 % of control.

As for `CC(=O)Nc1ccc2ccc3ccccc3c2c1`, the T/C reads like this: under setting [5], 94 % of control; under setting [6], 98 % of control; under setting [7], 95 % of control; (dose: 200.0 mg/kg/injection, schedule: Q04DX003 (ip), vehicle: Klucel (hydroxypropylcellulose) (HPC)) 98 % of control; (dose: 400.0 mg/kg/injection, schedule: Q01DX009 (ip), vehicle: Klucel (hydroxypropylcellulose) (HPC)) 92 % of control; (dose: 400.0 mg/kg/injection, schedule: Q04DX003 (ip), vehicle: Klucel (hydroxypropylcellulose) (HPC)) 94 % of control.

As to `O=C1CCCC/C1=N/Nc1ccccc1`, the T/C is 93 % of control (dose: 5.0 mg/kg/injection, schedule: Q01DX009 (ip), vehicle: saline with Tween-80); 98 % of control (dose: 5.0 mg/kg/injection, schedule: Q04DX003 (ip), vehicle: saline with Tween-80); 102 % of control (dose: 10.0 mg/kg/injection, schedule: Q01DX009 (ip), vehicle: saline with Tween-80); 102 % of control (dose: 10.0 mg/kg/injection, schedule: Q04DX003 (ip), vehicle: saline with Tween-80); 95 % of control (dose: 20.0 mg/kg/injection, schedule: Q01DX009 (ip), vehicle: saline with Tween-80); 99 % of control (dose: 20.0 mg/kg/injection, schedule: Q04DX003 (ip), vehicle: saline with Tween-80).

In the case of `CN(C=O)C(=S)[S][Sb]([S]C(=S)N(C)C=O)[S]c1nc2ccc(N=Nc3ccc(NS(=O)(=O)c4ccc(NC(=O)C(Cl)Cl)cc4)cc3)cc2s1`, under “dose: 100.0 mg/kg/injection, schedule: Q01DX001 (ip), vehicle: steriod suspending solution”, the T/C is 101 % of control.

`CCC1=C(c2cc(Cl)c3ccccc3c2OCC(=O)O)OC(CC)(C(=O)c2cc(Cl)c3ccccc3c2OCC(=O)O)CC1` (configuration not stated): the T/C is 96 % of control (dose: 30.0 mg/kg/injection, schedule: Q01DX009 (ip), vehicle: saline with Tween-80); 92 % of control (dose: 31.0 mg/kg/injection, schedule: Q01DX Z (ip), vehicle: other); 94 % of control (dose: 60.0 mg/kg/injection, schedule: Q01DX009 (ip), vehicle: saline with Tween-80); 95 % of control (dose: 62.0 mg/kg/injection, schedule: Q01DX Z (ip), vehicle: other); 103 % of control (dose: 100.0 mg/kg/injection, schedule: Q04DX003 (ip), vehicle: saline with Tween-80); 92 % of control (dose: 120.0 mg/kg/injection, schedule: Q01DX009 (ip), vehicle: saline with Tween-80). Besides, the T/C (dose: 200.0 mg/kg/injection, schedule: Q04DX003 (ip), vehicle: saline with Tween-80) was 93 % of control and the T/C (dose: 240.0 mg/kg/injection, schedule: Q01DX009 (ip), vehicle: saline with Tween-80) was 92 % of control.

On to `Nc1c(Br)cc(Br)c2[nH]c(=O)c3ccccc3c12`, for which the T/C is 104 % of control under setting [8], 96 % of control under setting [9] and 98 % of control under setting [10].

Regarding `COc1cc(/C=N/NC(=O)c2cccs2)cc(OC)c1OC`, the T/C under setting [11] was 98 % of control; the T/C under setting [12] was 94 % of control; the T/C (dose: 400.0 mg/kg/injection, schedule: Q01DX009 (ip), vehicle: saline with Tween-80) was 98 % of control.

On to `CC(C)(O)C#Cc1ccccc1`, for which the T/C was 99 % of control (dose: 50.0 mg/kg/injection, schedule: Q01DX009 (ip), vehicle: Klucel (hydroxypropylcellulose) (HPC)); 105 % of control (dose: 100.0 mg/kg/injection, schedule: Q01DX005 (ip), vehicle: Klucel (hydroxypropylcellulose) (HPC)); 99 % of control under setting [5]; 95 % of control under setting [1]; 97 % of control (dose: 200.0 mg/kg/injection, schedule: Q01DX005 (ip), vehicle: Klucel (hydroxypropylcellulose) (HPC)); 92 % of control under setting [7]. In addition, the T/C is, setting by setting: under setting [2], 113 % of control; under setting [3], 102 % of control.

With `COc1ccc2c(OC)c3ccoc3nc2c1OC`, the T/C runs as follows: (dose: 25.0 mg/kg/injection, schedule: Q01DX Z (ip), vehicle: carboxymethylcellulose (CMC)) 97 % of control; (dose: 50.0 mg/kg/injection, schedule: Q01DX Z (ip), vehicle: carboxymethylcellulose (CMC)) 100 % of control.

For the compound `C=CC(=O)Nc1ccc(Cl)cc1`, the T/C under setting [4] is 98 % of control; the T/C (dose: 50.0 mg/kg/injection, schedule: Q04DX003 (ip), vehicle: Klucel (hydroxypropylcellulose) (HPC)) was 96 % of control; the T/C under setting [6] was 107 % of control and 90 % of control.

With `Cc1ccc(NC(=O)C2C3CC4OC(=O)C2C4C3)cc1` (configuration not stated), the T/C (dose: 100.0 mg/kg/injection, schedule: Q04DX003 (ip), vehicle: saline) was 102 % of control; the T/C (dose: 200.0 mg/kg/injection, schedule: Q04DX003 (ip), vehicle: saline) is 108 % of control; the T/C (dose: 400.0 mg/kg/injection, schedule: Q04DX003 (ip), vehicle: saline) was 111 % of control.

On to `CCNC(=O)N(C)Cc1ccc(Cl)cc1`, for which the T/C under setting [11] was 88 % of control and the T/C under setting [12] was 95 % of control.

`C#CC(OC(=O)NC1CCCCC1)(c1ccccc1)c1ccccc1`: the T/C was 101 % of control (dose: 3.0 mg/kg/injection, schedule: Q01DX009 (ip), vehicle: carboxymethylcellulose (CMC)); 100 % of control (dose: 6.0 mg/kg/injection, schedule: Q01DX009 (ip), vehicle: carboxymethylcellulose (CMC)); 106 % of control (dose: 6.25 mg/kg/injection, schedule: Q01DX009 (ip), vehicle: saline with Tween-80); 110 % of control (dose: 12.0 mg/kg/injection, schedule: Q01DX009 (ip), vehicle: carboxymethylcellulose (CMC)); 106 % of control (dose: 12.5 mg/kg/injection, schedule: Q01DX009 (ip), vehicle: saline with Tween-80); 106 % of control (dose: 12.5 mg/kg/injection, schedule: Q01DX009 (ip), vehicle: saline). The T/C (dose: 25.0 mg/kg/injection, schedule: Q01DX009 (ip), vehicle: carboxymethylcellulose (CMC)) is 116 % of control; the T/C (dose: 25.0 mg/kg/injection, schedule: Q01DX009 (ip), vehicle: saline) was 114 % of control; the T/C (dose: 50.0 mg/kg/injection, schedule: Q01DX009 (ip), vehicle: saline) is 157 % of control; the T/C (dose: 88.0 mg/kg/injection, schedule: Q04DX003 (ip), vehicle: saline sonified) is 107 % of control; the T/C under setting [8] is 97 % of control; the T/C (dose: 100.0 mg/kg/injection, schedule: Q01DX009 (ip), vehicle: saline sonified) is 96 % of control. The T/C was 97 % of control (dose: 100.0 mg/kg/injection, schedule: Q01DX009 (ip), vehicle: saline); 110 % of control (dose: 132.0 mg/kg/injection, schedule: Q04DX003 (ip), vehicle: saline sonified); 104 % of control under setting [9]; 110 % of control (dose: 300.0 mg/kg/injection, schedule: Q04DX003 (ip), vehicle: saline sonified); 116 % of control under setting [10].
